Values quoted from earlier work, collected in US20220142214A1, “SYNERGISTIC COMPOSITION OF FOOD-BASED AND ORGANIC NUTRIENTS AND METHODS FOR USE AND MANUFACTURE” (priority 2020, published 2022).
Where two headings read alike, the source gives them in different places.

Experiments:
B16-BL6 cells [1] = conditions: for tumor growth: intraperitoneal administration at time of i.m. injection of B16-BL6 cells
B16-BL6 cells [2] = conditions: dose-dependent
[3] = intraperitoneal administration, syngeneic mice

Structure (SMILES) | tumor growth (B16-BL6 cells [1]) | toxicity (B16-BL6 cells [1]; [3]) | number of B16-BL6 colonies in the lungs (B16-BL6 cells [2]) | toxicity (B16-BL6 cells [1]; mouse, in vivo, ip)
O=C(O[C@@H]1Cc2c(O)cc(O)cc2O[C@@H]1c1cc(O)c(O)c(O)c1)c1cc(O)c(O)c(O)c1 [EGCG, Epigallocathechin-3-gallate] | significant, dose-dependent delay of tumor growth | without toxicity | – | –
O=c1cc(-c2ccc(O)cc2)oc2cc(O)cc(O)c12 [apigenin] | significant, dose-dependent delay of tumor growth | without toxicity | significantly decreased | –
O=c1c(O)c(-c2ccc(O)c(O)c2)oc2cc(O)cc(O)c12 [quercetin] | significant, dose-dependent delay of tumor growth | – | significantly decreased | without toxicity
Oc1ccc(C=Cc2cc(O)cc(O)c2)cc1 [resveratrol] | significant, dose-dependent delay of tumor growth | – | – | without toxicity
CC/C(=C(\c1ccccc1)c1ccc(OCCN(C)C)cc1)c1ccccc1 [tamoxifen] | significant, dose-dependent delay of tumor growth | – | significantly decreased | without toxicity
